Reference: patent US20130053385A1, “METHOD OF COMBATING AND CONTROLLING PESTS” (SYNGENTA LIMITED, priority 2009, published 2013)
Like-named read-outs stand apart in the source and are kept apart here.

Legend:
Format in all cases: in vivo
[1] = tested on: Tetranychus urticae (Two-Spotted Spider Mite); experiment: Activity against Tetranychus urticae, mixed population, feeding/residual contact activity, preventive (bean leaf discs, Example B4); conditions: foliar, 192 h, read-out: activity (egg, larval and adult mortality)
Source text: Activity Against Tetranychus urticae (Two-Spotted Spider Mite)
(§1) (mixed population, feeding/residual contact activity, preventive)
Bean leaf discs on agar in 24-well microtiter plates are sprayed with test solutions. After drying, the leaf discs are infested with mite populations of mixed ages. 8 days later, discs are checked for egg mortality, larval mortality, and adult mortality.

[2] = tested on: Myzus persicae (Green Peach Aphid); experiment: Activity against Myzus persicae, mixed population, feeding activity (sucrose solution through Parafilm, Example B7); conditions: 120 h, in sucrose solution, 5 days after infestation
Source text: (§2) Activity Against Myzus persicae (Green Peach Aphid)
(mixed population, feeding activity)
Test compounds are applied with a pipette into 24 well plates and mixed with a sucrose solution. The plates are closed with a stretched Parafilm. A plastic stencil with 24 holes is placed onto the plate and infested pea seedlings are placed directly on the Parafilm. The infested plate is closed with a gel blotting paper and another plastic stencil, and then turned upside down. 5 days after infestation the samples are checked for mortality.

[3] = tested on: Thrips tabaci (Onion Thrips); experiment: Activity against Thrips tabaci, mixed population, feeding/residual contact activity, preventive (sunflower leaf discs, Example B3); conditions: foliar, 144 h, sprayed sunflower leaf discs, 6 days incubation, mixed-age thrips
Experimental: Activity Against Thrips tabaci (Onion Thrips)
as §1
Sunflower leaf discs are placed on agar in a 24-well microtiter plate and sprayed with test solutions. After drying, the leaf discs are infested with a thrips population of mixed ages. After an incubation period of 6 days, samples are checked for mortality and special effects (e.g. phytotoxicity).

[4] = tested on: Plutella xylostella (Diamond Back Moth); experiment: Activity against Plutella xylostella, larvicide, feeding/residual contact activity, preventive (artificial diet MTP, Example B5); conditions: 120 h, read-out: activity (larval mortality, antifeedant, growth regulation)
Experimental: Activity Against Plutella xylostella (Diamond Back Moth)
(§3) (larvicide, feeding/residual contact activity, preventive)
24-well microtiter plate (MTP) with artificial diet is treated with test solutions by pipetting. After drying, the MTP's are infested with larvae (L2)(10-15 per well). After an incubation period of 5 days, samples are checked for larval mortality, antifeedant and growth regulation.

[5] = tested on: Myzus persicae (Green Peach Aphid); experiment: Activity against Myzus persicae, mixed population, feeding/residual contact activity, preventive (sunflower leaf discs, Example B1); conditions: foliar, 144 h, read-out: activity (mortality)
Experimental: as §2, §1
Sunflower leaf discs are placed on agar in a 24-well microtiter plate and sprayed with test solutions. After drying, the leaf discs are infested with an aphid population of mixed ages. After an incubation period of 6 days, samples are checked for mortality and special effects (e.g. phytotoxicity).

[6] = tested on: Diabrotica balteata (Corn Root Worm); experiment: Activity against Diabrotica balteata, larvicide, feeding/residual contact activity, preventive (artificial diet MTP, Example B6); conditions: 120 h, L2 larvae, 5 days incubation, read-out: activity (larval mortality, antifeedant, growth regulation)
Experimental: Activity Against Diabrotica balteata (Corn Root Worm)
as §3
24-well microtiter plate (MTP) with artificial diet is treated with test solutions by pipetting. After drying, the MTP's are infested with larvae (L2)(6-10 per well). After an incubation period of 5 days, samples are checked for larval mortality, antifeedant and growth regulation.

[7] = 400 ppm, sprayed bean leaf discs, 8 days, mixed-age mites
[8] = 400 ppm, artificial diet, L2 larvae, 5 days incubation
[9] = 400 ppm, sprayed sunflower leaf discs, 6 days incubation, mixed-age aphids

Structure (SMILES) | mortality at 400 ppm [1, 7] [%] | mortality at 400 ppm [3] [%] | mortality at 400 ppm [4, 8] [%] | mortality at 400 ppm [5, 9] [%] | also measured
Cc1cc(C)c(C2C(=O)C/C(=C\C3CCCOC3)C2=O)c(C)c1 (stereo not shown) [Compound T14] | > 80 | > 80 | > 80 | > 80 | mortality at 25 ppm [2]: > 80%
Cc1cc(C)c(C2=C(OC(=O)C3CC3)CC(CC3CCN(C(=O)C4CC4)C3)C2=O)c(C)c1 (stereo not shown) [Compound P57] | > 80 |  |  | > 80 | 
Cc1cc(C)c(C2=C(OC(=O)OCC(C)(C)C)CC(CC3CCOC3)C2=O)c(C)c1 (stereo not shown) [Compound P24] |  | > 80 |  |  | 
Cc1cc(Br)cc(C)c1C1C(=O)C/C(=C\C2CCOCC2)C1=O (stereo not shown) [Compound T45] | > 80 |  |  | > 80 | 
CCS(=O)(=O)N1CCC(CC2CC(=O)C(c3c(C)cc(C)cc3C)C2=O)CC1 (stereo not shown) [Compound T95] | > 80 |  |  | > 80 | 
CCCOC(=O)OC1=C(c2c(C)cc(C)cc2C)C(=O)C(CC2CCOC2)C1 (stereo not shown) [Compound P20] |  | > 80 | > 80 |  | 
Cc1cc(-c2ccc(Cl)cc2)cc(C)c1C1C(=O)C/C(=C\C2CCOCC2)C1=O (stereo not shown) [Compound T62] | > 80 |  | > 80 | > 80 | mortality at 25 ppm [2]: > 80%
Cc1cc(C)c(C2C(=O)CC(CC3C[C@@H]4O[C@H]3[C@@H]3C(=O)NC(=O)[C@@H]34)C2=O)c(C)c1 (stereo partly shown) [Compound T127] |  |  | > 80 |  | 
Cc1cc(C)c(C2C(=O)CC(CC3CCCOC3)C2=O)c(C)c1 (stereo not shown) [Compound T16] |  | > 80 | > 80 | > 80 | 
CON1CCC(CC2CC(OC(=O)c3ccccc3)=C(c3c(C)cc(C)cc3C)C2=O)CC1 (stereo not shown) [Compound P55] | > 80 | > 80 |  |  | 
COc1ccc(C(=O)OC2=C(c3c(C)cc(C)cc3C)C(=O)CC2CC2CCOC2)cc1 (stereo not shown) [Compound P71] | > 80 |  |  | > 80 | mortality at 400 ppm [6]: > 80%
Cc1cc(C)c(C2C(=O)CC(CC3CCOC(C)(C)C3)C2=O)c(C)c1 (stereo not shown) [Compound T39] | > 80 |  |  |  | mortality at 400 ppm [6]: > 80%
Cc1cc(C)c(C2C(=O)CC(CC3CCOCC3)C2=O)c(C)c1 (stereo not shown) [Compound T4] |  | > 80 | > 80 |  | 
Cc1cc(C)c(C2C(=O)C/C(=C\C3CCN(C(=O)OC(C)(C)C)CC3)C2=O)c(C)c1 (stereo not shown) [Compound T54] | > 80 |  |  |  | mortality at 400 ppm [6]: > 80%
Cc1cc(C)c(C2=C(OC(=O)c3ccccc3)CC(CC3CCOCC3)C2=O)c(C)c1 (stereo not shown) [Compound P44] | > 80 | > 80 | > 80 | > 80 | mortality at 400 ppm [6]: > 80%
CON1CCC(CC2CC(=O)C(c3c(C)cc(C)cc3C)C2=O)CC1 (stereo not shown) [Compound T23] |  | > 80 |  | > 80 | 
Cc1cc(C)c(C2=C(OC(=O)Oc3ccccc3)CC(CC3CCOC3)C2=O)c(C)c1 (stereo not shown) [Compound P26] |  | > 80 |  |  | 
COC(=O)N1CCC(CC2CC(=O)C(c3c(C)cc(C)cc3C)C2=O)CC1 (stereo not shown) [Compound T98] | > 80 |  |  |  | mortality at 400 ppm [5]: > 80%
CON1CCC(CC2CC(OC(=O)OC(C)C)=C(c3c(C)cc(C)cc3C)C2=O)CC1 (stereo not shown) [Compound P56] | > 80 | > 80 |  |  | 
CCS(=O)(=O)OC1=C(c2c(C)cc(C)cc2C)C(=O)C(CC2CCOC2)C1 (stereo not shown) [Compound P27] |  | > 80 |  |  | 
CCSC(=O)N1CCC(/C=C2\CC(=O)C(c3c(C)cc(C)cc3C)C2=O)C1 (stereo not shown) [Compound T33] |  |  |  |  | mortality at 400 ppm [4]: > 80%
COc1ccc(C(=O)OC2=C(c3c(C)cc(C)cc3C)C(=O)C(CC3CCOC3)C2)cc1 (stereo not shown) [Compound P18] | > 80 | > 80 |  |  | 
Cc1cc(C)c(C2C(=O)C/C(=C\C3CCOC(C)(C)C3)C2=O)c(C)c1 (stereo not shown) [Compound T37] | > 80 |  |  | > 80 | 

Structure (SMILES) | mortality at 400 ppm [1, 7] [%] | mortality at 400 ppm [3] [%] | mortality at 400 ppm [4, 8] [%] | mortality at 400 ppm [5, 9] [%] | also measured
Cc1cc(C)c(C2C(=O)CC(CC3CCOC3)C2=O)c(C)c1 (stereo not shown) [Compound T5] |  | > 80 | > 80 | > 80 | 
Cc1cc(Br)cc(C)c1C1C(=O)CC(CC2CCOC2)C1=O (stereo not shown) [Compound T160] |  |  |  |  | mortality at 400 ppm [6]: > 80%
Cc1cc(C)c(C2=C(OC(=O)C(C)C)CC(CC3CCOC3)C2=O)c(C)c1 (stereo not shown) [Compound P13] |  | > 80 |  |  | 
Cc1cc(C)c(C2C(=O)CC(CC3CCN(C(=O)Oc4ccccc4)CC3)C2=O)c(C)c1 (stereo not shown) [Compound T68] |  |  |  |  | mortality at 400 ppm [1]: > 80%; mortality at 400 ppm [5]: > 80%
Cc1cc(Br)cc(C)c1C1C(=O)CC(CC2CCOCC2)C1=O (stereo not shown) [Compound T138] | > 80 |  |  | > 80 | 
Cc1cc(C)c(C2C(=O)C/C(=C\C3CCOCC3)C2=O)c(C)c1 (stereo not shown) [Compound T8] | > 80 | > 80 | > 80 | > 80 | 
CON1CCC(CC2CC(OC(C)=O)=C(c3c(C)cc(C)cc3C)C2=O)CC1 (stereo not shown) [Compound P50] |  | > 80 |  | > 80 | 
Cc1cccc(C)c1C1C(=O)CC(CC2CCOCC2)C1=O (stereo not shown) [Compound T52] | > 80 | > 80 |  | > 80 | 
Cc1cc(C)c(C2=C(OC(=O)C(C)(C)C)CC(CC3CCOCC3)C2=O)c(C)c1 (stereo not shown) [Compound P5] |  |  | > 80 |  | 
Cc1cc(C)c(C2=C(OC(=O)C(C)(C)C)CC(CC3CCOC3)C2=O)c(C)c1 (stereo not shown) [Compound P7] | > 80 | > 80 | > 80 | > 80 | 
Cc1cc(C)c(C2C(=O)CC(CC3CCN(C(=O)c4cc(C)nn4C)CC3)C2=O)c(C)c1 (stereo not shown) [Compound T121] |  |  | > 80 |  | 
Cc1cc(C)c(C2=C(OC(=O)OCC(C)C)CC(CC3CCOC3)C2=O)c(C)c1 (stereo not shown) [Compound P23] | > 80 | > 80 |  |  | 
Cc1cc(C)c(C2=C(OC(=O)C3CCCCC3)CC(CC3CCOC3)C2=O)c(C)c1 (stereo not shown) [Compound P15] |  | > 80 |  |  | 
Cc1cc(C)c(C2C(=O)C/C(=C\C3CCOC3)C2=O)c(C)c1 (stereo not shown) [Compound T17] | > 80 | > 80 | > 80 | > 80 | mortality at 400 ppm [6]: > 80%
Cc1cc(C)c(C2=C(OC(=O)c3ccccc3)CC(CC3CCOC3)C2=O)c(C)c1 (stereo not shown) [Compound P17] | > 80 | > 80 |  | > 80 | 
Cc1cc(-c2ccc(F)cc2)cc(C)c1C1C(=O)CC(CC2CCOCC2)C1=O (stereo not shown) [Compound T63] | > 80 |  |  | > 80 | mortality at 25 ppm [2]: > 80%
Cc1cc(C)c(C2=C(OC(=O)OC(C)C)CC(CC3CCOCC3)C2=O)c(C)c1 (stereo not shown) [Compound P43] |  | > 80 |  |  | 
Cc1cc(C)c(C2=C(OC(=O)C(C)(C)C)CC(CC3CCCOC3)C2=O)c(C)c1 (stereo not shown) [Compound P37] | > 80 |  | > 80 |  | 
Cc1cc(C)c(C2C(=O)C/C(=C\C3CCN(S(C)(=O)=O)C3)C2=O)c(C)c1 (stereo not shown) [Compound T31] | > 80 |  | > 80 |  | 
CCSC(=O)OC1=C(c2c(C)cc(C)cc2C)C(=O)C(CC2CCOC2)C1 (stereo not shown) [Compound P30] |  | > 80 |  |  | 
Cc1cc(-c2ccc(F)cc2)cc(C)c1C1C(=O)C/C(=C\C2CCOCC2)C1=O (stereo not shown) [Compound T61] | > 80 |  |  | > 80 | mortality at 25 ppm [2]: > 80%
Cc1cc(-c2ccc(Cl)cc2F)cc(C)c1C1C(=O)C/C(=C\C2CCOCC2)C1=O (stereo not shown) [Compound T132] | > 80 |  |  | > 80 | 
